Assay results published in the supplement of paper PMC10307832.

Assays:
Assay in all cases: relative viability (nuclei count vs DMSO), 5 days (fraction); higher = more cells survive
[1] = compound: C1=CC2=C(C=C(C(=C2N=C1)O)N=NC3=CC4=C(C=C3)C=C(C=C4)S(=O)(=O)O)S(=O)(=O)O + CC(=O)Nc1cccc(-n2c(=O)n(C3CC3)c(=O)c3c(Nc4ccc(I)cc4F)n(C)c(=O)c(C)c32)c1 [Trametinib] (partner 0.02 µM)
Outline: (§1)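 Nuclei were stained with Hoechst during a one-step fixation (final 0.05% Triton X-100, 1% formaldehyde, 1 ug/ml Hoechst) carried out 5 days after dosing, then counted on 4× images. The cells, lung cancer lines in 1536-well plates, had been dosed by pin tool the day after seeding with one drug alone or a fixed anchor-drug dose plus five library-drug doses (not always all listed) in √10 steps. Relative viability is the nuclei count in treated wells divided by that in vehicle wells, and each value is the median of duplicate plates.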

[2] = compound: C1=CC2=C(C=C(C(=C2N=C1)O)N=NC3=CC4=C(C=C3)C=C(C=C4)S(=O)(=O)O)S(=O)(=O)O + CS(=O)(=O)N1CCN(Cc2cc3nc(-c4cccc5[nH]ncc45)nc(N4CCOCC4)c3s2)CC1 [Pictilisib] (partner 1 µM)
Outline: as §1

[3] = compound: C1=CC2=C(C=C(C(=C2N=C1)O)N=NC3=CC4=C(C=C3)C=C(C=C4)S(=O)(=O)O)S(=O)(=O)O + NC(=O)Nc1cc(-c2cccc(F)c2)sc1C(=O)N[C@H]1CCCNC1 [AZD7762] (partner 0.2 µM)
Outline: as §1

AT-7519 + Phenformin = compound: O=C(NC1CCNCC1)c1n[nH]cc1NC(=O)c1c(Cl)cccc1Cl [AT-7519] + N=C(N)NC(=N)NCCc1ccccc1 [Phenformin] (partner 250 µM)
Outline: as §1

Cell Line	relative viability ([1]; first compound 0.08 µM)	relative viability ([1]; first compound 0.253 µM)	relative viability ([1]; first compound 0.8 µM)	relative viability ([1]; first compound 2.53 µM)	relative viability ([1]; first compound 8 µM)	relative viability ([2]; first compound 0.08 µM)	relative viability ([2]; first compound 0.253 µM)	relative viability ([2]; first compound 0.8 µM)	relative viability ([2]; first compound 2.53 µM)	relative viability ([2]; first compound 8 µM)	relative viability ([3]; first compound 0.08 µM)	relative viability ([3]; first compound 0.253 µM)	relative viability ([3]; first compound 0.8 µM)	relative viability ([3]; first compound 2.53 µM)	relative viability ([3]; first compound 8 µM)	relative viability (AT-7519 + Phenformin; first compound 0.01 µM)	relative viability (AT-7519 + Phenformin; first compound 0.03162 µM)	relative viability (AT-7519 + Phenformin; first compound 0.3162 µM)	relative viability (AT-7519 + Phenformin; first compound 1 µM)
NCI-H1993	0.49	0.465	0.575	0.539	0.504	0.887	0.802	0.938	0.921	0.782	0.906	0.712	0.702	0.845	0.832	0.544	0.574	0.528	0.439
NCI-H647	0.584	0.429	0.426	0.54	0.518	0.357		0.436	0.505	0.394	0.473	0.321	0.513	0.471	0.345	0.619	0.529	0.335	0.281
NCI-H1792	0.5	0.387	0.454	0.494	0.391	0.304	0.26	0.295	0.286	0.302	1	0.655	0.723	0.715	0.836	0.208	0.22	0.315	0.163
ChaGo-K-1	0.983	0.908	0.938	0.875	0.798	0.645	0.669	0.673	0.851	0.711	0.933	0.82	0.845	0.892	0.721	0.459	0.392	0.404	0.451
LOU-NH91	0.841	0.77	0.759	0.733	0.797	0.57	0.523	0.539	0.486	0.524	0.779	0.75	0.737	0.794	0.676	0.674	0.743	0.677	0.631
NCI-H2405	0.635	0.597	0.599	0.686	0.687	0.496	0.432	0.33	0.418	0.28	0.898	0.784	0.738	0.77	0.732	0.375	0.39	0.35	0.32
LCLC-97TM1	0.197	0.183	0.191	0.182	0.15		0.239		0.149	0.222	0.354	0.22	0.292	0.214	0.314	0.476	0.456	0.42	0.289
NCI-H596	0.939	0.751	0.77	0.795	0.681	0.408	0.385	0.377	0.428	0.417	1.25	1.12	1.13	1.04	1.17	0.732	0.653	0.642	0.714
NCI-H727	0.344	0.398	0.351	0.356	0.335	0.591	0.311	0.217	0.358	0.482	0.689	0.639	0.646	0.639	0.658	0.527	0.584	0.509	0.417
